Data as given in PubChem BioAssay (NCI).
Values joined by “and” are separate entries in the source; they are usually repeats but may differ in a detail not shown here. Identical values can stand only once.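 Test compounds were applied to cells in 96-well plates for 48 hours at 5 doses. Here, GI50 denotes the concentration required for 50% inhibition of growth. TGI: concentration producing complete growth inhibition.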

Assays:
Assay in all cases: NCI-60 cell line screen, 48 h
SNB-19 CNS = system: SNB-19 CNS
CAKI-1 renal = system: CAKI-1 renal
SN12C renal = system: SN12C renal
SK-MEL-2 melanoma = system: SK-MEL-2 melanoma
MDA-N = system: MDA-N
SF-268 CNS = system: SF-268 CNS
K-562 leukemia = system: K-562 leukemia
CCRF-CEM leukemia = system: CCRF-CEM leukemia
ACHN renal = system: ACHN renal
A549 NSCLC = system: A549 NSCLC
NCI-H522 lung = system: NCI-H522 lung
SW-620 colon = system: SW-620 colon
SNB-75 CNS = system: SNB-75 CNS
DU-145 prostate = system: DU-145 prostate
A498 renal = system: A498 renal
M14 melanoma = system: M14 melanoma
MDA-MB-435 = system: MDA-MB-435
COLO 205 colon = system: COLO 205 colon
SK-MEL-5 melanoma = system: SK-MEL-5 melanoma
MDA-MB-231 breast = system: MDA-MB-231 breast
OVCAR-3 ovarian = system: OVCAR-3 ovarian
HT29 colon = system: HT29 colon
HCT-116 colon = system: HCT-116 colon
U251 CNS = system: U251 CNS
MCF7 breast = system: MCF7 breast
TK-10 renal = system: TK-10 renal
NCI/ADR-RES ovarian = system: NCI/ADR-RES ovarian
IGROV1 ovarian = system: IGROV1 ovarian
HS 578T breast = system: HS 578T breast
LOX IMVI melanoma = system: LOX IMVI melanoma
UACC-62 melanoma = system: UACC-62 melanoma
SF-539 CNS = system: SF-539 CNS
HL-60(TB) leukemia = system: HL-60(TB) leukemia
HCT-15 colon = system: HCT-15 colon
SK-MEL-28 melanoma = system: SK-MEL-28 melanoma
EKVX NSCLC = system: EKVX NSCLC
SF-295 CNS = system: SF-295 CNS
HOP-62 NSCLC = system: HOP-62 NSCLC
BT-549 breast = system: BT-549 breast
T-47D breast = system: T-47D breast
OVCAR-8 ovarian = system: OVCAR-8 ovarian
NCI-H23 lung = system: NCI-H23 lung
NCI-H460 lung = system: NCI-H460 lung
SK-OV-3 ovarian = system: SK-OV-3 ovarian
786-0 renal = system: 786-0 renal
OVCAR-5 ovarian = system: OVCAR-5 ovarian
KM12 colon = system: KM12 colon
OVCAR-4 ovarian = system: OVCAR-4 ovarian
UACC-257 melanoma = system: UACC-257 melanoma
MOLT-4 leukemia = system: MOLT-4 leukemia
NCI-H226 lung = system: NCI-H226 lung
RPMI-8226 leukemia = system: RPMI-8226 leukemia
PC-3 prostate = system: PC-3 prostate
RXF 393 renal = system: RXF 393 renal
HCC-2998 colon = system: HCC-2998 colon
UO-31 renal = system: UO-31 renal
HOP-92 NSCLC = system: HOP-92 NSCLC
SR leukemia = system: SR leukemia
MALME-3M melanoma = system: MALME-3M melanoma

O=C(Nc1ccn(C2CC(O)C(CO)O2)c(=O)n1)c1ccccc1 (stereo not drawn)
TGI (SNB-19 CNS): > 100 µM | TGI (CAKI-1 renal): > 100 µM | TGI (SN12C renal): > 100 µM | TGI (SK-MEL-2 melanoma): > 100 µM | TGI (MDA-N): > 100 µM | TGI (SF-268 CNS): > 100 µM | TGI (K-562 leukemia): > 100 µM | TGI (CCRF-CEM leukemia): > 100 µM | TGI (ACHN renal): > 100 µM | TGI (A549 NSCLC): > 100 µM | TGI (NCI-H522 lung): > 100 µM | TGI (SW-620 colon): > 100 µM | TGI (SNB-75 CNS): > 100 µM | TGI (DU-145 prostate): > 100 µM | TGI (A498 renal): > 100 µM | TGI (M14 melanoma): > 100 µM | TGI (MDA-MB-435): > 100 µM | TGI (COLO 205 colon): > 100 µM | TGI (SK-MEL-5 melanoma): > 100 µM | TGI (MDA-MB-231 breast): > 100 µM | TGI (OVCAR-3 ovarian): > 100 µM | TGI (HT29 colon): > 100 µM | TGI (HCT-116 colon): > 100 µM | TGI (U251 CNS): > 100 µM | TGI (MCF7 breast): > 100 µM | TGI (TK-10 renal): > 100 µM | TGI (NCI/ADR-RES ovarian): > 100 µM | TGI (IGROV1 ovarian): > 100 µM | TGI (HS 578T breast): > 100 µM | TGI (LOX IMVI melanoma): > 100 µM | TGI (UACC-62 melanoma): > 100 µM | TGI (SF-539 CNS): > 100 µM | TGI (HL-60(TB) leukemia): > 100 µM | TGI (HCT-15 colon): > 100 µM | TGI (SK-MEL-28 melanoma): > 100 µM | TGI (EKVX NSCLC): > 100 µM | TGI (SF-295 CNS): > 100 µM | TGI (HOP-62 NSCLC): > 100 µM | TGI (BT-549 breast): > 100 µM | TGI (T-47D breast): > 100 µM | TGI (OVCAR-8 ovarian): > 100 µM | TGI (NCI-H23 lung): > 100 µM | TGI (NCI-H460 lung): > 100 µM | TGI (SK-OV-3 ovarian): > 100 µM | TGI (786-0 renal): > 100 µM | TGI (OVCAR-5 ovarian): > 100 µM | TGI (KM12 colon): > 100 µM | TGI (OVCAR-4 ovarian): > 100 µM | TGI (UACC-257 melanoma): > 100 µM | TGI (MOLT-4 leukemia): > 100 µM | TGI (NCI-H226 lung): > 100 µM | TGI (RPMI-8226 leukemia): > 100 µM | TGI (PC-3 prostate): > 100 µM

COC(=O)[C@H](Cc1ccccc1)NC(=O)[C@H](Cc1ccccc1)NC(=O)CN1C(=O)[C@@H]2C3C=CC(C3)[C@@H]2C1=O
TGI (RXF 393 renal): 36.2 µM and 35 µM | TGI (SNB-19 CNS): 36.6 µM and 39.9 µM | TGI (CAKI-1 renal): 30.6 µM and 35.1 µM | TGI (SN12C renal): 32.9 µM and 30.6 µM | TGI (SK-MEL-2 melanoma): 33 µM and 34.5 µM | TGI (MDA-N): 30.2 µM and 30.9 µM | TGI (SF-268 CNS): 26.3 µM and 31.5 µM | GI50 (K-562 leukemia): 7.26 µM and 17.5 µM | TGI (K-562 leukemia): 36.2 µM and 42.2 µM | GI50 (CCRF-CEM leukemia): 7.9 µM and 19.9 µM | TGI (CCRF-CEM leukemia): 39.1 µM and 57.3 µM | TGI (ACHN renal): 29.7 µM and 30.4 µM | TGI (A549 NSCLC): 45.9 µM and 44.1 µM | TGI (NCI-H522 lung): 27.8 µM and 31.8 µM | TGI (SW-620 colon): 40.8 µM and 48.5 µM | TGI (SNB-75 CNS): 34 µM and 33.7 µM | TGI (DU-145 prostate): 39.1 µM and 34.2 µM | TGI (A498 renal): 31.3 µM and 53 µM | TGI (M14 melanoma): 41.4 µM and 40.4 µM | TGI (MDA-MB-435): 28.7 µM and 32 µM | TGI (COLO 205 colon): 29.7 µM and 30.9 µM | TGI (SK-MEL-5 melanoma): 28.3 µM and 32.1 µM | TGI (MDA-MB-231 breast): 31.5 µM and 32.4 µM | TGI (OVCAR-3 ovarian): 33.1 µM and 37 µM | TGI (HT29 colon): 38.4 µM and 42.1 µM | TGI (HCT-116 colon): 27.3 µM and 30.2 µM | TGI (U251 CNS): 30 µM and 33.2 µM | TGI (MCF7 breast): 34.1 µM and 31.7 µM | TGI (TK-10 renal): 31.2 µM and 38.6 µM | TGI (NCI/ADR-RES ovarian): 53.9 µM and > 100 µM | TGI (IGROV1 ovarian): 25.5 µM and 30.4 µM | TGI (HS 578T breast): 38.2 µM and 38 µM | TGI (LOX IMVI melanoma): 33.3 µM and 32.2 µM | TGI (UACC-62 melanoma): 30 µM and 30.2 µM | TGI (SF-539 CNS): 32 µM and 33.3 µM | TGI (HL-60(TB) leukemia): 40.8 µM and 33.5 µM | TGI (HCT-15 colon): 31.2 µM and 33.1 µM | TGI (SK-MEL-28 melanoma): 35 µM and 35.7 µM | TGI (EKVX NSCLC): 35.1 µM and 37.3 µM | TGI (SF-295 CNS): 35.5 µM and 36.6 µM | TGI (HCC-2998 colon): 30.8 µM and 31 µM | TGI (HOP-62 NSCLC): 38.5 µM and 39.8 µM | TGI (BT-549 breast): 32.1 µM and 30.2 µM | TGI (T-47D breast): 47.2 µM and 49 µM | TGI (OVCAR-8 ovarian): 27.9 µM and 33.8 µM | TGI (NCI-H23 lung): 32.1 µM and 33 µM | TGI (NCI-H460 lung): 42.6 µM and 46.3 µM | TGI (SK-OV-3 ovarian): 31.7 µM | TGI (786-0 renal): 27.2 µM and 28.8 µM | TGI (UO-31 renal): 42.3 µM and 32.1 µM | TGI (OVCAR-5 ovarian): 43.1 µM and 41.7 µM | TGI (KM12 colon): 33.9 µM and 41.7 µM | TGI (OVCAR-4 ovarian): 31.2 µM and 37.5 µM | TGI (UACC-257 melanoma): 30.9 µM and 33.6 µM | TGI (MOLT-4 leukemia): 5.2 µM and 8.67 µM | TGI (HOP-92 NSCLC): 33.3 µM and 36.1 µM | TGI (NCI-H226 lung): 38.5 µM and 39.1 µM | TGI (RPMI-8226 leukemia): 38.3 µM and 52 µM | TGI (PC-3 prostate): 29 µM and 30 µM

CCOc1cc(NC(C)=O)ccc1C(=O)NN1C(=O)/C(=C/c2ccco2)N=C1c1ccccc1
TGI (RXF 393 renal): > 100 µM | TGI (SR leukemia): > 100 µM | TGI (SNB-19 CNS): > 100 µM | TGI (CAKI-1 renal): > 100 µM | TGI (SN12C renal): > 100 µM | TGI (SK-MEL-2 melanoma): > 100 µM | TGI (MDA-N): > 100 µM | TGI (SF-268 CNS): > 100 µM | TGI (K-562 leukemia): > 100 µM | TGI (MALME-3M melanoma): > 100 µM | TGI (CCRF-CEM leukemia): > 100 µM | TGI (ACHN renal): > 100 µM | TGI (A549 NSCLC): > 100 µM | TGI (NCI-H522 lung): > 100 µM | TGI (SW-620 colon): > 100 µM | TGI (SNB-75 CNS): > 100 µM | TGI (DU-145 prostate): > 100 µM | TGI (A498 renal): > 100 µM | TGI (M14 melanoma): > 100 µM | TGI (MDA-MB-435): > 100 µM | TGI (COLO 205 colon): > 100 µM | TGI (SK-MEL-5 melanoma): > 100 µM | TGI (OVCAR-3 ovarian): > 100 µM | TGI (HT29 colon): > 100 µM | TGI (HCT-116 colon): > 100 µM | TGI (MCF7 breast): > 100 µM | TGI (NCI/ADR-RES ovarian): > 100 µM | TGI (IGROV1 ovarian): > 100 µM | TGI (HS 578T breast): > 100 µM | TGI (LOX IMVI melanoma): > 100 µM | TGI (UACC-62 melanoma): > 100 µM | TGI (SF-539 CNS): > 100 µM | TGI (HL-60(TB) leukemia): > 100 µM | TGI (HCT-15 colon): > 100 µM | TGI (SK-MEL-28 melanoma): > 100 µM | TGI (EKVX NSCLC): > 100 µM | TGI (SF-295 CNS): > 100 µM | TGI (HCC-2998 colon): > 100 µM | TGI (HOP-62 NSCLC): > 100 µM | TGI (BT-549 breast): > 100 µM | TGI (T-47D breast): > 100 µM | TGI (OVCAR-8 ovarian): > 100 µM | TGI (NCI-H23 lung): > 100 µM | TGI (NCI-H460 lung): > 100 µM | TGI (SK-OV-3 ovarian): > 100 µM | TGI (786-0 renal): > 100 µM | TGI (UO-31 renal): > 100 µM | TGI (OVCAR-5 ovarian): > 100 µM | TGI (KM12 colon): > 100 µM | TGI (OVCAR-4 ovarian): > 100 µM | TGI (UACC-257 melanoma): > 100 µM | TGI (MOLT-4 leukemia): > 100 µM | TGI (HOP-92 NSCLC): > 100 µM | TGI (NCI-H226 lung): > 100 µM | TGI (RPMI-8226 leukemia): > 100 µM | TGI (PC-3 prostate): > 100 µM
